Results: patent publication US20210347728A1, “4,5-DIHYDROXY-2-(4-METHYLBENZYL)ISOPHTHALONITRILE SOLVATES AND CRYSTALLINE FORMS THEREOF” (Orion Corporation, priority 2018, published 2021)

Assay: Stability and conversion of crystalline forms with relative humidity
Type: physicochemical
Conditions: humidity range not specified

## Cc1ccc(Cc2c(C#N)cc(O)c(O)c2C#N)cc1 [Form II monohydrate, 4,5-dihydroxy-2-(4-methylbenzyl)isophthalonitrile monohydrate]
  stability of the crystalline form with humidity: stable within a reasonable humidity range
